Data reported in patent US9402856B2, “Pharmaceutical composition for preventing or treating diabetes containing TENC1 expression or activity suppressor” (POSTECH ACADEMY-INDUSTRY FOUNDATION, priority 2012, dated 2016).
Each block holds one compound with its values, some of them ahead of it. Residues, ends and D or L forms follow the SMILES beside them. *: point of attachment. Cbz = O=C(OCc1ccccc1)*

Experiments:
TENC1 [1] = biological target: T1, TENC1 (Homo sapiens, UniProt Q63HR2, P1246L); assay: degradation of IRS-1 protein in myotube overexpressing TENC1, Western blotting; type: cell-based; set-up: expressed in transfected cells; host or cells: L6 myotube (adenoviral overexpression)
T1 sequence (Q63HR2 1-1409 P1246L): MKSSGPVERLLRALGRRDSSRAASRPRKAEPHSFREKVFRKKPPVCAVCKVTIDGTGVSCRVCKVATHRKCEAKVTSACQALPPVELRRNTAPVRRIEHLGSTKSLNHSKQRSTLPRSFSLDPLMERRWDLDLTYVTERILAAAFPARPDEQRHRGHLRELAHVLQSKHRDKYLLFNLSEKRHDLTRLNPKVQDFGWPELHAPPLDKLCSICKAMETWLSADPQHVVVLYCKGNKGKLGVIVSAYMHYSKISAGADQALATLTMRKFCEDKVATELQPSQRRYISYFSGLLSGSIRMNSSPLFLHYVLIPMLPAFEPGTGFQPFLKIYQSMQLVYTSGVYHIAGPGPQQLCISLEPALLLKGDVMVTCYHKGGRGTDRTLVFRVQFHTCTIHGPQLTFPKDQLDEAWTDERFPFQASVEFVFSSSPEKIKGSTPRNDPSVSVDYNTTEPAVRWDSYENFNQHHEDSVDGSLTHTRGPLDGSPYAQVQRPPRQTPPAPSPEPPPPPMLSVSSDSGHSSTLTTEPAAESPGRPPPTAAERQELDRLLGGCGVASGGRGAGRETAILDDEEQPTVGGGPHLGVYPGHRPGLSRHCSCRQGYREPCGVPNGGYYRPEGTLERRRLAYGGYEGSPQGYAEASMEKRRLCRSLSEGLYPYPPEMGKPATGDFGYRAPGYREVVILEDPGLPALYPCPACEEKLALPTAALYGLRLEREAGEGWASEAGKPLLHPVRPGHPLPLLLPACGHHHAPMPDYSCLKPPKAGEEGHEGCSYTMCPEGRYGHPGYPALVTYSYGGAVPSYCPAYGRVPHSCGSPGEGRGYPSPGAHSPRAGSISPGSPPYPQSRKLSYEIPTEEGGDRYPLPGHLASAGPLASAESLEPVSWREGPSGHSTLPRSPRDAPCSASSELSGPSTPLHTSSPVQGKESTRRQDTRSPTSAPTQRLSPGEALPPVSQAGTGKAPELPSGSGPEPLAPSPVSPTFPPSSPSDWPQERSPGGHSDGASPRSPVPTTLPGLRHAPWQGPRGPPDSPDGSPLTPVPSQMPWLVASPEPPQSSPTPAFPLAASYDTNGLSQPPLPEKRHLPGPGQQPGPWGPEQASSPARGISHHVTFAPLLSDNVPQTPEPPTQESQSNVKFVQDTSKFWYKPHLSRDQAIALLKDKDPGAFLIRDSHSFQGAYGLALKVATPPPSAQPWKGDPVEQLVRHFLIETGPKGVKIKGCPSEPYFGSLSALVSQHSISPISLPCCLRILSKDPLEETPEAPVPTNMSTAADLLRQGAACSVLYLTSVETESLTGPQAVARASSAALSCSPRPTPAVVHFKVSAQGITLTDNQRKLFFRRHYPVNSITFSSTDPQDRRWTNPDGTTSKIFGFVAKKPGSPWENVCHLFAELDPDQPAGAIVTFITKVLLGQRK
Experimental: In order to know a physiological function of TENC1, TENC1 was overexpressed in L6 myotube (muscle cell) that plays a main role in IRS-1, using an adenovirus. Using the same method as in Example 1, the quantitative PCR was performed and it was confirmed that TENC1 mRNA was increased eightfold to tenfold in the myotube. Then, using the same method as in Example 2, phosphorylation of proteins associated with IRS-1 was determined.
Accordingly, in order to determine the reason for the decrease of IRS-1, it was determined whether TENC1 influences a ubiquitin proteasome pathway or serine phosphorylation of IRS-1 by Western blotting. In order to determine whether TENC1 influences a protein-degrading mechanism, MG132, which is an inhibitor of a protein-degrading enzyme (proteasome), was treated.
In order to determine whether the PTPase activity of TENC1 influences degradation of IRS-1, vanadate was treated to determine whether degradation of IRS-1 is suppressed by Western blotting.

TENC1 [2] = biological target: T1, TENC1; assay: PTPase activity of separated TENC1, malachite green assay; type: biochemical; set-up: expressed in transfected cells; conditions: separated TENC1 proteins, FIG. 16A
Experimental: In addition, in order to measure the PTPase activity of TENC1, first, TENC1 was separated from HEK293 cell lines using a Flag immunoprecipitation/Flag peptide elution system. Then, the PTPase activity of the separated TENC1 was measured over time, using peptides having phosphotyrosine. The PTPase activity was analyzed by a malachite green assay method. As a control group, PTEN (a phosphatase and tensin homolog) or the TENC1 CS variant was used.
As a result, it was confirmed that the PTPase activity of TENC1 was inhibited by 60% or more (FIG. 16A).

PTPase domain of TENC1 = biological target: T2, PTPase domain of TENC1 (Homo sapiens, UniProt Q63HR2, P1246L); assay: binding of TENC1 and IRS-1, immunoprecipitation using IRS-1; conditions: FIG. 5
T2 construct: expressed in transfected cells
T2 sequence (Q63HR2 1-1409 P1246L): T1 sequence (Q63HR2 1-1409 P1246L)
Experimental: In order to determine a mechanism of TENC1 that suppresses phosphorylation of IRS-1, immunoprecipitation was performed using IRS-1. In a control experiment, vanadate, which is an analogue of phosphotyrosine and binds to a PTPase domain to inhibit the PTPase activity, was used.

Structure (SMILES): CC(C)C[C@@H](C=O)NC(=O)[C@H](CC(C)C)NC(=O)[C@H](CC(C)C)NC(=O)OCc1ccccc1 [MG132] (Cbz-Leu-Leu-Leu-aldehyde)
amount of IRS-1 (TENC1 [1]; with and without insulin, TENC1 overexpressed, FIG. 9): the decreased amount of IRS-1 was restored

inhibition at 20 µM (TENC1 [2]): ≥ 60%
Structure (SMILES): C[C@H]1[C@H](C)CC[C@]2(C(=O)O)CC[C@]3(C)C(=CC[C@@H]4[C@@]5(C)CC[C@H](O)C(C)(C)[C@@H]5CC[C@]43C)[C@H]12 [ursolic acid]
degree of degradation of IRS-1 protein (TENC1 [1]; myotube overexpressing TENC1, increasing concentration, FIG. 16C): IRS-1 is restored to a level similar to a control group

Structure (SMILES): [O]=[V]([O-])([O-])[O-] [vanadate]
degradation of IRS-1 (TENC1 [1]; vanadate treated, Western blotting, FIG. 10): degradation of IRS-1 was suppressed
binding of TENC1 WT with IRS-1 (PTPase domain of TENC1): binding with IRS-1 decreased
